Measurements: patent publication EP4260858A1, “COMPOSITION COMPRISING PRIMIDONE AND PEG” (Christian-Albrechts-Universität zu Kiel, priority 2022, dated 2023)

Tests used:
L929 fibroblasts = assay: TNFα + zVAD induced RIPK1-dependent necroptosis, FACS (7-AAD / Annexin V); format: cell-based
Method: (§1) The commercially available drug Necrostatin-1 (Nec-1s, 20 µM) acted as an internal control (inhibitor) of RIPK1-mediated cell death. All drugs were added 30 min before TNFα stimulation. RIPK1-mediated cell death was quantified by FACS analysis using 7-amino-actinomycin D and phosphatidylserine accessibility (Annexin V staining) as markers. […] The commercially available drug Necrostatin-1 (Nec-1s, 20 µM) acted as an internal control (inhibitor) of RIPK1-mediated cell death. All drugs were added 30 min before TNFα stimulation. RIPK1-mediated cell death was quantified by FACS analysis using 7-amino-actinomycin D and phosphatidylserine accessibility (Annexin V staining) as markers. […] All drugs were added 30 min before TNFα stimulation. […] All drugs were added 30 min before TNFα stimulation. Necroptotic cell death was quantified by FACS analysis using 7-amino-actinomycin D and phosphatidylserine accessibility (Annexin V staining) as markers.
(§2) The known RIPK1 kinase inhibitor Nec-1s was used as a control.
(§3) RIPK3-expressing NIH3T3 cells and L929 fibroblasts were obtained from the American Type Culture Collection (Manassas, VA, USA). Both cell lines were cultured in DMEM (Gibco, Thermo Fisher Scientific, Schwerte, Germany) supplemented with 10% (v/v) FCS (PAN-Biotech GmbH, Aidenbach, Germany), 100 U/ml penicillin, and 100 µg/ml streptomycin (both from Merck Millipore GmbH, Darmstadt, Germany). The cell lines were cultured in a humidified 5% CO2 atmosphere at 37°C. Negativity for mycoplasma was routinely checked using a MycoAlert Mycoplasma Detection Kit (Lonza, Cologne, Germany). Unless stated otherwise, assays were conducted using 1x 10^5 cells in 1 ml of medium.
(§4) Recombinant purified TNFα (# 570104) was purchased from BioLegend (Amsterdam, the Netherlands). The pan-caspase inhibitor zVAD-fmk (# 4026865) was purchased from Bachem (Weil am Rhein, Germany), Nec-1s (2263-1-BV) was obtained from BioCat (Heidelberg, Germany); primidone (# P7295) was purchased from Sigma-Aldrich Chemie GmbH (Taufkirchen, Germany). Polyethylenglycol (PEG300, # 202371) was purchased from Merck Millipore, Dimethyl sulfoxide (DMSO, A3672) was obtained from AppliChem (via Thermo Fisher Scientific).
(§5) For testing the ability of primidone to protect against RIPK1-driven cell death, cells were kept in 1 ml medium. To test 1 mM, 0.75 mM and 0.5 mM primidone in PEG300, we pipetted 15.6 µl, 11.7 µl and 7.8 µl, respectively, of the 64.144 mM stock solution to the 1 ml of the medium that contains the cells. […]
(§6) Phosphatidylserine exposure to the outer cell membrane of apoptotic cells or inner plasma membrane of necrotic cells and incorporation of 7-amino-actinomycin D (7-AAD) into necrotic cells was quantified by flow cytometry analysis. […]

NIH3T3 cells = assay: as above; format: cell-based
Method: as §1, §2, §3, §4, §5, §6

[1] = cited from earlier work
RIPK1 = biological target: T1, RIPK1 (Homo sapiens, UniProt Q13546); conditions: background statement, WO 2021/048162 A1; cited from earlier work
T1 sequence (Q13546 1-671): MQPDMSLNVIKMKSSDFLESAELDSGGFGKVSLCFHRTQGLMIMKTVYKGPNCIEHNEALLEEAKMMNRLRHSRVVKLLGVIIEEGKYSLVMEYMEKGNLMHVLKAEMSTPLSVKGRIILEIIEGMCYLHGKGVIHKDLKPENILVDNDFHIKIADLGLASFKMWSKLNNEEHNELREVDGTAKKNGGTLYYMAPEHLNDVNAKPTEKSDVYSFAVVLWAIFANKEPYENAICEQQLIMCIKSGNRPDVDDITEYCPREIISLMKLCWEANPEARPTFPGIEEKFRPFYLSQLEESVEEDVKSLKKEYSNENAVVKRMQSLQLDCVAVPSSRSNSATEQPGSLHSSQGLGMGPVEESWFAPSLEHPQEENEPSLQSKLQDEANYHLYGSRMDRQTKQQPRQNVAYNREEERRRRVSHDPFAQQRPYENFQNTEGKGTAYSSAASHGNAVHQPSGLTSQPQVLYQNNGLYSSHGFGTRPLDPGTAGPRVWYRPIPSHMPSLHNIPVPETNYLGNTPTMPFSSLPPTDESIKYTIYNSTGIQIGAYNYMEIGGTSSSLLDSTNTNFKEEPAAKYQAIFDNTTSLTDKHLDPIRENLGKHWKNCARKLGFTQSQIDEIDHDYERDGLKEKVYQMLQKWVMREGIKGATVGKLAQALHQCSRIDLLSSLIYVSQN

[2] = primidone solubilized in PEG300, control Nec-1s 20 µM

With `CCC1(c2ccccc2)C(=O)NCNC1=O` [primidone, 5-Ethyl-5-phenyl-1,3-diazinane-4,6-dione] the “protection from RIPK1-mediated necroptosis” value (L929 fibroblasts; 10 ng/ml TNFα + 25 µM zVAD, 24 h, 37°C, equimolar primidone (0.5-1 mM) dissolved in DMSO or PEG300, added 30 min before TNFα) was “able to protect”, the “protective effects compared with Nec-1s” value (L929 fibroblasts; [2]) was “as strong as those observed for Nec-1s” and the “protection from RIPK1-mediated necroptosis” value (NIH3T3 cells; 100 ng/ml TNFα + 25 µM zVAD, 24 h, 37°C, equimolar primidone (0.5-1 mM) dissolved in DMSO or PEG300, added 30 min before TNFα) was “able to protect”. For the same compound, the “protective effects compared with Nec-1s” value (NIH3T3 cells; [2]) was “as strong as those observed for Nec-1s”, the “soluble in dimethyl sulfoxide (DMSO) in amounts of up to” value ([1]; DMSO) was “up to 44 mg/ml” and the “soluble in ethanol up to a concentration” value ([1]; ethanol) was “about 3 mg/ml”. The “soluble in water up to a concentration” value ([1]; water) was “about 0.5 mg/ml” and the “activation of RIPK1 by phosphorylation or autophosphorylation” value (RIPK1) was “prevents the activation of RIPK1”.
